In experiment [1] the test system is panel of solid and haemotological tumor cell lines. Briefly: MTS cell proliferation assay (cytotoxicity). It is filed as cell-based. The note with it: 72 hours incubation, MTS readout. As for the experimental part: MTS Cell Proliferation Assay
The anti-proliferation effect of MCT inhibition was investigated across a panel of solid and haemotological tumor cell lines. Cells were routinely cultured in their appropriate growth medium. On day 1, between 5,000-20,000 cells/well were plated into 96-well plates. 100 μL of phosphate buffered saline solution was added to the external wells to prevent media evaporation. Plates were incubated in growth medium overnight at 37° C. in the presence of 5% CO2. On day 2, dry weight compound stocks were dissolved to a concentration of 20 mM in 100% DMSO. Compounds were further diluted in the assay medium; 10 mM lactate medium (without glucose, pyruvate, and glutamine) or RPMI medium or appropriate medium to generate a final dose range of 10 nM to 100 μM. Growth medium in the 96-well plate was replaced with the assay medium (10 mM lactate medium or RPMI medium or appropriate medium), and compounds were added to each well in the plate at different concentrations via serial dilution or pre-prepared solutions in assay medium. Plates were then incubated at 37° C. in the presence of 5% CO2 for a further 72 hours. On day 5, 20 μL of CellTiter 96 AQ MTS reagent was added to each well and the plate was returned to the incubator for 2 hours. In case of lactate medium, the medium was replaced by 100 μL of growth medium and 20 μL of CellTiter 96 AQ MTS reagent. MTS is bioreduced by NADPH or NADH produced by dehydrogenase enzymes in metabolically active cells into a coloured formazan product that is soluble in tissue culture medium. The amount of coloured formazan product is directly proportional to the number of living cells in culture. The absorbance of the plates was read on a Synergy H4 plate reader using […] measurement wavelength. Dose response curves were plotted and IC50 values were calculated using GraphPrism. The IC50 value is equivalent to the concentration of compound that causes 50% inhibition of growth calculated from the compound treated signal to the vehicle treated signal.
MTT Cell Proliferation Assay
The MIT assay is a colorimetric assay for assessing cell viability similar to MTS assay. NAD(P)H-dependent cellular oxidoreductase enzymes may, under defined conditions, reflect the number of viable cells present. These enzymes are capable of reducing the tetrazolium dye MTT 3-(4,5-dimethylthiazol-2-yl)-2,5-diphenyltetrazolium bromide to its insoluble formazan, which has a purple color. MTT powder is dissolved in Dulbecco's Phosphate Buffered Saline, pH=7.4 (DPBS) to 5 mg/ml as stock solution. Cells and test compounds in 96-well plates were prepared containing a final volume of 100 μL/well as described in the MTS assay. The assay was performed similar to MTS assay above. […] The absorbance was read at 570 nm.
For orientation: Formazan colour is commonly taken as a measure of viable cells.

Experiment [2] relates to MDA-MB-231 human breast carcinoma cells. Briefly: Tumor xenograft model (orthotopic, NOD-SCID mice). It is filed as in vivo. Particulars: nine days after start of treatment. As for the experimental part: In order to test the in vivo efficacy of the invention, Example 9 was tested according to the protocol of Iorns to al. [Iorns E, Drews-Elger K, Ward T M, Dean S, Clarke J, Berry D, et al. (2012) A New Mouse Model for the Study of Human Breast Cancer Metastasis. PLoS ONE 7(10): e47995. https://doi.org/10.1371/journal.pone.0047995] Twenty-eight female NOD-SCID mice (Charles River) were injected orthotopically with basal MDA-MB-231 human breast carcinoma cells into the mammary fat pads. […] Mice were dosed qd with 30 mg/kg and 75 mg/kg p.o. of Example 9. At nine days after start of treatment tumor volume was roughly 50% of control in mice dosed at 30 mg/kg and roughly 30% of control in mice dosed at 75 mg/kg.

Data on 4 compounds can be found in patent US20230192718A1, “BICYCLIC ENONE CARBOXYLATES AS MODULATORS OF TRANSPORTERS AND USES THEREOF” (NIROGY THERAPEUTICS, INC., priority 2018, published 2023).

Regarding `CN(Cc1ccccc1)c1cc2oc(=O)c(C(=O)O)cc2s1` [Example 1, 2-(benzyl(methyl)amino)-5-oxo-5H-thieno[3,2-b]pyran-6-carboxylic acid], in experiment [1], the IC50 (as a rule, the midpoint of a concentration-inhibition curve) was < 1 µM.

Consider `COc1ccccc1C(=O)N(C)c1cc2oc(=O)c(C(=O)O)cc2s1` [Example 17, 2-[(2-Methoxy-benzoyl)-methyl-amino]-5-oxo-5H-thieno[3,2-b]pyran-6-carboxylic acid], for which the IC50 in experiment [1] was < 1 µM.

In the case of `CN(Cc1ccc(F)cc1)c1cc2oc(=O)c(C(=O)O)cc2s1` [Example 2, 2-((4-fluorobenzyl)(methyl)amino)-5-oxo-5H-thieno[3,2-b]pyran-6-carboxylic acid], the IC50 in experiment [1] is < 1 µM.

As to `COc1cccc(C(=O)N(C)c2cc3oc(=O)c(C(=O)O)cc3s2)c1` [Example 9, 2-(3-methoxy-N-methylbenzamido)-5-oxo-5H-thieno[3,2-b]pyran-6-carboxylic acid], the “tumor volume, % of control” value in experiment [2] (30 mg/kg p.o. qd) was “roughly 50 % of control”; in experiment [2] (75 mg/kg p.o. qd), “roughly 30 % of control”. Further, the half-maximal inhibitory concentration (IC50) in experiment [1] is < 1 µM.
